Results: the OPERA property sets (Mansouri et al. 2018)

| Structure (SMILES) | logP |
| --- | --- |
| CC(C)(O)C(F)(F)F | 1.04 |
| CC(CCO)C(F)(F)F (stereo not given) | 1.37 |
| CCC(O)CCC(F)(F)F (stereo not given) | 1.7 |
| CC(CO)CC(F)(F)F (stereo not given) | 1.39 |
| CC(CCO)CC(F)(F)F (stereo not given) | 1.61 |
| CC(O)CC(F)(F)F (stereo not given) | 0.71 |

The remaining lines, values ahead:

| logP | Structure (SMILES) |
| --- | --- |
| 1.64 | OCCCCCC(F)(F)F |
| 0.39 | OCCC(F)(F)F |
| 0.9 | OCCCC(F)(F)F |
| 1.15 | OCCCCC(F)(F)F |
